Among the data in patent US12336981B2, “Compounds and compositions for the inhibition of NAMPT” (Valo Health, Inc., priority 2010, dated 2025) are IC50 values, retold here.

Where two headings read alike, the source gives them in different places.

One assay concerns A2780 cells. The assay is described as follows: In-vitro cell proliferation assay (SRB), A2780 cells. The class given is cell-based. To be noted: Homo sapiens, A2780, 72 h, A2780 cells, 72 hours, read-out: A2780 IC50. The procedure, abridged:
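Read-out is SRB absorbance at 570 nm on TCA-fixed cells after 72 hours of compound treatment at 37° C. in 5% CO2. Background from a media-only plate is subtracted, and % inhibition is interpolated between two tested concentrations.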

A further assay addresses T1, NAMPT (Homo sapiens, UniProt P43490).
T1 construct: His tag; host or cells: E. coli
The experiment in a line: Biochemical inhibition assay: NAMPT enzymatic reaction, NMN quantified by mass spectrometry. To be noted: read-out: Biochem IC50. In short, it runs like this: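 Inhibition of E. coli-expressed His-tagged human NAMPT, measured as NMN formation by mass spectrometry after a 30 min room-temperature reaction containing 1 μM NAM, 100 μM PRPP and 2.5 mM ATP.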

What is called IC50 is the concentration that inhibits the measured activity by half.

T1 sequence (P43490 whole entry): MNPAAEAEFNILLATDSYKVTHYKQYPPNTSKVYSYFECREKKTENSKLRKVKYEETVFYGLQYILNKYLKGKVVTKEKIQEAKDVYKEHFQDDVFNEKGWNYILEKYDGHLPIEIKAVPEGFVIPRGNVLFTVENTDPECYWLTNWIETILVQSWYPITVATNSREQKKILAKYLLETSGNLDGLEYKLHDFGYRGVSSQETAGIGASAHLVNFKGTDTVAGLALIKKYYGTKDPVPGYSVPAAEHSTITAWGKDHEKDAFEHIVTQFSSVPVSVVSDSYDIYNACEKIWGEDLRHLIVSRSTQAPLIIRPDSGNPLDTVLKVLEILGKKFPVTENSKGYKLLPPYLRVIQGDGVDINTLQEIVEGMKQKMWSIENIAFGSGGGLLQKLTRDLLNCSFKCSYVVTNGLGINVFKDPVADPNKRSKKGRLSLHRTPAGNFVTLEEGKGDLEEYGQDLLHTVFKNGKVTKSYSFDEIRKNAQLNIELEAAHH

Take `CN(C)C(=O)c1ccccc1S(=O)(=O)c1ccc(CNC(=O)c2ccc3nccn3c2)cc1` [N-[(4-{[2-(dimethylcarbamoyl)benzene]sulfonyl}phenyl)methyl]imidazo[1,2-a]pyridine-6-carboxamide]: the IC50 was 100 to 1000 nM in the assay on A2780 cells (SRB) and greater than 167 nM on NAMPT (NAMPT enzymatic assay).
For `CN(C)C(=O)c1ccccc1S(=O)(=O)c1ccc(CNC(=O)c2cnc3nccn3c2)cc1` [N-[(4-{[2-(dimethylcarbamoyl)benzene]sulfonyl}phenyl)methyl]imidazo[1,2-a]pyrimidine-6-carboxamide], the IC50 in the assay with A2780 cells (SRB) is 1000 to 10000 nM; at NAMPT (NAMPT enzymatic assay), 100 to 1000 nM.
For `O=C(NCc1ccc(S(=O)(=O)Nc2ccccc2CO)cc1)c1cc2cnccc2[nH]1` [N-[(4-{[2-(hydroxymethyl)phenyl]sulfamoyl}phenyl)methyl]-1H-pyrrolo[3,2-c]pyridine-2-carboxamide], the IC50 in the assay on A2780 cells (SRB assay) was 6 nM; on NAMPT (NAMPT enzymatic reaction), 30 nM.
In the case of `CNS(=O)(=O)c1ccccc1S(=O)(=O)c1ccc(CNC(=O)c2cnc3[nH]ncc3c2)cc1` [N-[(4-{[2-(methylsulfamoyl)benzene]sulfonyl}phenyl)methyl]-1H-pyrazolo[3,4-b]pyridine-5-carboxamide], the results for the IC50 with A2780 cells (SRB) and at NAMPT (NAMPT enzymatic assay) were greater than 10000 nM and greater than 167 nM, respectively.
For the molecule `CNS(=O)(=O)c1ccccc1S(=O)(=O)c1ccc(CNC(=O)c2cc3cnccc3[nH]2)cc1` [N-[(4-{[2-(methylsulfamoyl)benzene]sulfonyl}phenyl)methyl]-1H-pyrrolo[3,2-c]pyridine-2-carboxamide], the IC50 with A2780 cells (SRB assay) was 202 nM; at NAMPT (NAMPT enzymatic reaction), 76 nM.
The like results for `O=C(NCc1ccc(S(=O)(=O)Nc2ccccc2N2CCOCC2)cc1)c1cc2cnccc2[nH]1` [N-[(4-{[2-(morpholin-4-yl)phenyl]sulfamoyl}phenyl)methyl]-1H-pyrrolo[3,2-c]pyridine-2-carboxamide] were, in that order, 17 nM and 19 nM.
Take `O=C(NCc1ccc(S(=O)(=O)c2ccccc2CN2CCOCC2)cc1)c1cc2cnccc2[nH]1` [N-[(4-{[2-(morpholin-4-ylmethyl)benzene]sulfonyl}phenyl)methyl]-1H-pyrrolo[3,2-c]pyridine-2-carboxamide]: the concentration for half-maximal inhibition (IC50) in the assay on A2780 cells (SRB assay) was found to be 6 nM; on NAMPT (NAMPT enzymatic reaction), 34 nM.
On to `O=C(NCc1ccc(S(=O)(=O)c2ccccc2CN2CCOCC2)cc1)c1ccc2nccn2c1` [N-[(4-{[2-(morpholin-4-ylmethyl)benzene]sulfonyl}phenyl)methyl]imidazo[1,2-a]pyridine-6-carboxamide], for which the IC50 was 34.2 nM with A2780 cells (SRB) and 136 nM at NAMPT (NAMPT enzymatic assay).
With `O=C(NCc1ccc(S(=O)(=O)c2ccccc2CN2CCOCC2)cc1)c1cc2ccncc2s1` [N-[(4-{[2-(morpholin-4-ylmethyl)benzene]sulfonyl}phenyl)methyl]thieno[2,3-c]pyridine-2-carboxamide], the IC50 was 3.6 nM in the assay with A2780 cells (SRB assay) and 13 nM on NAMPT (NAMPT enzymatic reaction).
The like results for `O=C(NCc1ccc(S(=O)(=O)Nc2ccccc2N2CCCCC2)cc1)c1cc2cnccc2[nH]1` [N-[(4-{[2-(piperidin-1-yl)phenyl]sulfamoyl}phenyl)methyl]-1H-pyrrolo[3,2-c]pyridine-2-carboxamide] were, in that order, 8 nM and 72 nM.
On to `CC(C)Oc1ccccc1NS(=O)(=O)c1ccc(CNC(=O)c2cc3cnccc3[nH]2)cc1` [N-[(4-{[2-(propan-2-yloxy)phenyl]sulfamoyl}phenyl)methyl]-1H-pyrrolo[3,2-c]pyridine-2-carboxamide], for which the IC50 with A2780 cells (SRB assay) came to 1 nM; on NAMPT (NAMPT enzymatic reaction), 3 nM.
Regarding `O=C(NCc1ccc(NS(=O)(=O)c2ccccc2OC(F)(F)F)cc1)c1cc2cnccc2[nH]1` [N-[(4-{[2-(trifluoromethoxy)benzene]sulfonamido}phenyl)methyl]-1H-pyrrolo[3,2-c]pyridine-2-carboxamide], the IC50 in the assay with A2780 cells (SRB assay) amounted to 1 nM; at NAMPT (NAMPT enzymatic reaction) it was 3 nM.
As for `O=C(NCc1ccc(S(=O)(=O)c2ccccc2OC(F)(F)F)cc1)c1cnc2nccn2c1` [N-[(4-{[2-(trifluoromethoxy)benzene]sulfonyl}phenyl)methyl]imidazo[1,2-a]pyrimidine-6-carboxamide], the concentration for half-maximal inhibition (IC50) was found to be 11.5 nM in the assay with A2780 cells (SRB) and 2.4 nM on NAMPT (NAMPT enzymatic assay).
